Reference: ChEMBL document CHEMBL5726701, “Pyrazine derivatives as phosphatidylinositol 3-kinase inhibitors” (2018)

Molecular target: Phosphatidylinositol 3-kinase catalytic subunit type 3 (Homo sapiens, UniProt Q8NEB9)
Test: Kinase Glo Luminescent Kinase Assay: PI 3-Kinase Alpha (A), Pb 3-Kinase Beta (B), Vps34 (C), PI 4-Kinase Beta (D):The luminescence-based ATP detection reagent KinaseGlo was obtained from Promega, (Cat. No. V6714, Lot No. 236161) through Catalys, Wallisellen, Switzerland. L-alpha-phosphatidylinositol (PI, liver, bovine) was obtained from Avanti Polar Lipid (Cat. No. 840042C, Lot#LPI-274), Phosphatidylinositol-4,5-bisphosphate (PIP(4,5)2) was also obtained from Avanti Polar Lipid (Cat. No. 840046X). L-α-Phosphatidylserine (PS) was obtained from Avanti Polar Lipid (Cat. No. 840032C), n-Octylglucoside from Avanti Polar Lipid (Cat. No. 10634425001). Luminescence is a well established readout to determine ATP concentrations and can thus be used to follow the activity of many kinases regardless of their substrate. The Kinase Glo Luminescent Kinase Assay (Promega, Madison/WI, USA) is a homogeneous HTS method of measuring kinase activity by quantifying the amount of ATP remaining in solution following a kinase reaction.

Phosphatidylinositol 3-kinase catalytic subunit type 3, sequence (Q8NEB9 whole entry): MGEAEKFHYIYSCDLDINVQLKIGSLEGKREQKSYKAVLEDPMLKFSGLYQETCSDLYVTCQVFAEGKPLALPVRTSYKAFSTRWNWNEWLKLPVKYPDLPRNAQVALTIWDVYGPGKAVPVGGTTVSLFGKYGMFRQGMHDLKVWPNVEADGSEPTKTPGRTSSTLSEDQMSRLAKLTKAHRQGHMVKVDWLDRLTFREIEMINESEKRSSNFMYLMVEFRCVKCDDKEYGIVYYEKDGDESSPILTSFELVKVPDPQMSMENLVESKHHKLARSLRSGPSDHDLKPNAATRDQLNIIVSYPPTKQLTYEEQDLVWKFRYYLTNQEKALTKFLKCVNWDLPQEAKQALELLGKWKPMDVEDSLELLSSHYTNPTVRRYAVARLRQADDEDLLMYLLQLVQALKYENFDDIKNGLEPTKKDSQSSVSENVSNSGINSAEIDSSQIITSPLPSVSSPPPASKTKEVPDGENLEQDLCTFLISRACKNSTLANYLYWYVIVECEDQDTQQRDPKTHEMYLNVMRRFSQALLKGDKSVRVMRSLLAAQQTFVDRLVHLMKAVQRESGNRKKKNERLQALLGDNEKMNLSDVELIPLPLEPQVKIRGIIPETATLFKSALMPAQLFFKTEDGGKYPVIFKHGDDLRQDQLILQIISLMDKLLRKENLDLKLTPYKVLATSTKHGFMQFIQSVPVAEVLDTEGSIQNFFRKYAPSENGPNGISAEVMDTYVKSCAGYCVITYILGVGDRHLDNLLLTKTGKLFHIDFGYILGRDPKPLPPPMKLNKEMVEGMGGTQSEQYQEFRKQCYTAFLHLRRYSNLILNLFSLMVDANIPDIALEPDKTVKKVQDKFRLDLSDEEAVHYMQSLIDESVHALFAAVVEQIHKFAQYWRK

| IC50 | SMILES |
| --- | --- |
| 8.6 µM | Cc1ccc(S(=O)(=O)N[C@H]2CC[C@H](O)CC2)cc1-c1cncc(-c2csc(CN3CCOCC3)c2)n1 |
| 9.4 µM | Cc1ccc(S(=O)(=O)NC2CC3(CC(O)C3)C2)cc1-c1cncc(-c2cn(C)nc2C)n1 (centres undefined) |
| 2.45 µM | Cc1cc(-c2cncc(-c3cc(S(=O)(=O)NC[C@H]4C[C@@H](O)C4)ccc3C)n2)n(C)n1 |
| 4.4 µM | Cc1ccc(S(=O)(=O)NC[C@H]2C[C@@H](O)C2)cc1-c1cncc(-c2cn(C)nc2C)n1 |
